The results in this text go back to US20260234115A1, “LIPID COMPOUNDS, COMPOSITIONS, AND USES THEREOF” (Liberate Bio, Inc., priority 2023, published 2026).

A short description of series [1]: Dynamic light scattering: LNP particle size and PDI. The note with it: for Particle Size (nm) / PDI: LNP compositions for in vivo mouse study; for Particle Size (nm): four formulations (F1-F4) of the lipid compound pooled, or pools of four compounds (sixteen compositions); for PDI: four formulations (F1-F4) pooled, or pools of four compounds; for PDI N/P:6 / Size (nm) N/P:6: LNP. Format: physicochemical. The procedure: (§1) Lipids and active ingredients (e.g., RNA, DNA, etc.) were assembled into LNPs using microfluidic mixing. An ethanol phase was prepared by solubilizing ionizable lipids (i.e., lipid compounds), phospholipids (e.g., DSPC), cholesterol, and PEG lipids in ethanol, at predetermined mol % ratios given in Table 2. An aqueous phase was prepared by diluting a nucleic acid cargo (e.g., firefly luciferase mRNA) in an acidified buffer (pH 4.0 citrate buffer, 50 mM). A chip with microfluidic mixing architecture (e.g., toroidal mixer) was used to mix the two phases at predetermined flow rate ratios (e.g., 9 ml/min for the aqueous phase and 3 ml/min for the ethanol phase). Resulting LNPs comprising the lipids and encapsulating the nucleic acid cargo were dialyzed against PBS pH 7.4 for 2 hours at room temperature in a 20 kDa MWCO dialysis membrane. Then, PBS was refreshed to continue dialysis overnight at 2-8 TC. Upon completion of the buffer exchange, LNPs were optionally concentrated using a ultracentrifugal unit with a 10-100 kDa MWCO membrane.
d. Dynamic Light Scattering
LNPs were diluted with PBS pH 7.4 to predetermined dilution ranges based on the process step and LNP concentration. Following mixing, the particle size and PDI were measured by a dynamic light scattering instrument.

A short description of series [2]: Plate-based fluorescence (RiboGreen) assay: nucleic acid cargo content and encapsulation efficiency of LNPs. The class given is physicochemical. The following applies: for EE % / mRNA Content: LNP compositions for in vivo mouse study, four formulations (F1-F4) pooled, or pools of four compounds; for EE (%) N/P:6: LNP. The procedure:
as §1
c. Plate-Based Fluorescence (RiboGreen) Assay
Nucleic acid cargos in the LNPs were quantified by RiboGreen assay, against a nucleic acid standard curve. LNPs encapsulating nucleic acid cargo were mixed with 1× Tris-EDTA (TE) and 2% triton in TE, separately, to achieve dilutions required by the assay. Then, the samples were heated at 30° C. and vortexed at 300 rpm. Samples were plated into 96-well plates and RiboGreen reagent was added into each well. Following incubation in the dark, fluorescence was measured from the wells, and plotted against the standard curve. Nucleic acid concentration obtained from the Triton-treated samples were used for total cargo concentration quantification. Only TE diluted sample fluorescence values were used to determine the non-encapsulated (free) cargo, and their ratio was used to determine the encapsulation efficiency (EE %).

The structures appear in SMILES notation.

For `CCCCC/C=C\CCOC(=O)CCCCCC(=O)OCC(COC(=O)CCCCCCOC(=O)C(CCCC)CCCCCC)(COC(=O)CCCCCC(=O)OCC/C=C\CCCCC)COC(=O)CCC(CCCCCC)OC(=O)NCCN1CCCC1` (stereo not drawn) [Compound 16, O7-[2-[7-(2-butyloctanoyloxy)heptanoyloxymethyl]-2-[[7-[(Z)-non-3-enoxy]-7-oxo-heptanoyl]oxymethyl]-3-[4-(2-pyrrolidin-1-ylethylcarbamoyloxy)decanoyloxy]propyl]O1-[(Z)-non-3-enyl]heptanedioate], the “Particle Size (nm)” value in series [1] is reported as 82.6 nm. In series [1], this compound showed a PDI of 0.125. In addition, the “PDI N/P:6” value came to 0.14 in series [1] (Formulation F1, N/P 6); 0.07 in series [1] (Formulation F2, N/P 6); 0.04 in series [1] (Formulation F3, N/P 6); 0.15 in series [1] (Formulation F4, N/P 6). In addition, the “Size (nm) N/P:6” value worked out at 73 ± 7 nm in series [1] (Formulation F1, N/P 6); 82 ± 2 nm in series [1] (Formulation F2, N/P 6); 92 ± 0 nm in series [1] (Formulation F3, N/P 6); 64 ± 0 nm in series [1] (Formulation F4, N/P 6). In series [2], the EE % is given as 96%. Also, the “mRNA Content” value in series [2] came to 84 µg/mL. The “EE (%) N/P:6” value came out at 99% in series [2] (Formulation F1, N/P 6); 99% in series [2] (Formulation F2, N/P 6); 98% in series [2] (Formulation F3, N/P 6); 99% in series [2] (Formulation F4, N/P 6).

Turning to `CCCCCCCCOC(CCC(=O)OCC(COC(=O)CCCCCCOC(=O)C(CCCC)CCCCCC)(COC(=O)CCC(CCCCCC)OC(=O)NCCN1CCCC1)COC(=O)CCC(OCCCCCCCC)OCCCCCCCC)OCCCCCCCC` (stereo not drawn) [Compound 20, [7-[2,2-bis(4,4-dioctoxybutanoyloxymethyl)-3-[4-(2-pyrrolidin-1-ylethylcarbamoyloxy)decanoyloxy]propoxy]-7-oxo-heptyl]2-butyloctanoate], the “Particle Size (nm)” value in series [1] was found to be 79 nm. This compound also returned a PDI in series [1] of 0.02. Moreover, the “PDI N/P:6” value was found to be 0.06 in series [1] (Formulation F1, N/P 6); 0.03 in series [1] (Formulation F2, N/P 6); 0.03 in series [1] (Formulation F3, N/P 6); 0.05 in series [1] (Formulation F4, N/P 6). Further, the “Size (nm) N/P:6” value came to 64 ± 1 nm in series [1] (Formulation F1, N/P 6); 76 ± 1 nm in series [1] (Formulation F2, N/P 6); 91 ± 2 nm in series [1] (Formulation F3, N/P 6); 61 ± 1 nm in series [1] (Formulation F4, N/P 6). This compound came in with an EE % in series [2] of 97%. For the same compound, the “mRNA Content” value in series [2] was found to be 98 µg/mL. For the same compound, the “EE (%) N/P:6” value in series [2] (Formulation F1, N/P 6) was found to be 100%; in series [2] (Formulation F2, N/P 6), 100%; in series [2] (Formulation F3, N/P 6), 100%; in series [2] (Formulation F4, N/P 6) it was 100%.

With `CCCCC/C=C\C/C=C\CCCCCCCC(=O)OCC(COC(=O)CCCCCCC/C=C\C/C=C\CCCCC)(COC(=O)CCC(CCCCCC)OC(=O)NCCN1CCCC1)COC(=O)CC12CC3CC(CC(C3)C1)C2` (stereo not drawn) [Compound 5, [2-[[2-(1-adamantyl)acetyl]oxymethyl]-2-[[(9Z,12Z)-octadeca-9,12-dienoyl]oxymethyl]-3-[4-(2-pyrrolidin-1-ylethylcarbamoyloxy)decanoyloxy]propyl](9Z,12Z)-octadeca-9,12-dienoate], in series [1], the “Particle Size (nm)” value amounted to 84.4 nm. In series [1], this compound came in with a PDI of 0.12. Also, the “PDI N/P:6” value in series [1] (Formulation F1, N/P 6) is 0.12; in series [1] (Formulation F2, N/P 6), 0.08; in series [1] (Formulation F3, N/P 6) it was 0.06; in series [1] (Formulation F4, N/P 6), 0.16. For the same compound, the “Size (nm) N/P:6” value in series [1] (Formulation F1, N/P 6) is on record as 70 ± 0 nm; in series [1] (Formulation F2, N/P 6), 88 ± 3 nm; in series [1] (Formulation F3, N/P 6) it was 97 ± 3 nm; in series [1] (Formulation F4, N/P 6) it was 66 ± 3 nm. For the same compound, the EE % in series [2] worked out at 96%. In series [2], the “mRNA Content” value is 80 µg/mL. For the same compound, the “EE (%) N/P:6” value in series [2] (Formulation F1, N/P 6) is listed as 98%; in series [2] (Formulation F2, N/P 6), 96%; in series [2] (Formulation F3, N/P 6), 98%; in series [2] (Formulation F4, N/P 6), 99%.
